According to patent US5338868A, “Process for preparing alpha-amino-phenylacetic acid-trifluoromethane sulfonic acid mixed anhydrides” (Chinoin Gyogyszer- es Vegyeszeti Termekek Gyara Rt., priority 1989, dated 1994):

Assay: Quality of the Dane salt during storage for 30 days
Format: physicochemical

SMILES: CCOC(=O)C=C(C)N[C@@H](C(=O)O)c1ccc(O)cc1 [Example 9]
- quality during storage (room temperature, air): does not change

SMILES: CCOC(=O)C=C(C)N[C@@H](C(=O)[O-])c1ccccc1.[Na+] [Example 15, sodium-D-N-(2-ethoxycarbonyl-1-methyl-vinyl)-α-amino-phenyl-acetate]
- quality after storage (stored at room temperature): remains unchanged
